Assays:
A375 (BRAF V600E) = assay: Cell proliferation MTT assay; format: cell-based; details: Homo sapiens, A-375, 72 h
Procedure: (§1) The synergism and antagonism (CI value) were determined and analyzed using CompuSyn 1.0.
(§2) For cytotoxicity test, normal NHDF (5000 cells/well) and NHEM cell line (3000 cells/well) were planted into 96-well plates. For cell proliferation assay, A375 (1500 cells/well), SK-MEL-28 (3000 cells/well), SK-MEL-2 (4000 cells/well), and HCT116 (1500 cells/well) were planted into 96-well plates, determined concentration of drug was added after culture for 24 h. The viability of the cells was detected within 72 h using MTT solution (5 mg/mL). The absorbance at 570/490 nm was quantified by the use of the microplate reader.

HCT116 (KRAS mut) = assay: Cell proliferation MTT assay; format: cell-based; details: Homo sapiens, HCT-116, 72 h
Procedure: as §1, §2

Pharmacokinetic assay = format: in vivo, Kunming mice; details: Kunming, mouse, plasma; oral gavage 50 mg/kg vs tail vein injection 25 mg/kg
Text: For pharmacokinetic study of erianin, LC-MS/MS was implemented to monitor the plasma concentration over times and associated parameters. Chromatographic separation was obtained on an ZORBAX SB-C18 column (3.5 μm, 3.0 × 100 mm). 85% acetonitrile was selected as the mobile phase. The conditions of ESI source were optimized as follows: Spray voltage 4000 V; nitrogen for dying with a flow rate of 11 L/min. Detect the selected reaction monitoring mode for quantification, m/z 315.0 > 180.8 for IS and m/z 319.1 > 150.9 for erianin, respectively. 2′-Hydroxy-4,4′,6′-trimethoxychalcone (500 ng/mL) was selected as internal standard. After the validation of standard curves (0.1, 1, 5, 10, 50, 100, 500, 800, and 1200 ng/mL for oral; 10, 50, 100, 500, 800, 1200, 2400, 4800, 9600 ng/mL for intravenous) and methods including selectivity, linearity, sensitivity, precision and stability, erianin was given to Kunming mice through oral gavage (50 mg/kg, n = 6) or tail vein injection (25 mg/kg, n = 4). A series of time points including 0, 0.083, 0.25, 0.5, 0.75, 1, 2, 3, 4, and 8 h were set for blood extraction. The pharmacokinetic parameters were analyzed using DAS 2.0. Absolute bioavailability (F%) = (AUCoral × Div)/(AUCiv × Doral) × 100%.

CRAF = target: T1, CRAF (Homo sapiens, UniProt P04049); assay: Erianin-conjugated Sepharose 4B bead pull-down assay; format: binding; details: in vitro and ex vivo (A375 cell lysate)
T1 construct: endogenous in cells; host or cells: A375
Procedure: (§3) 293 T cells were transfected with plasmids of pcDNA3.1-3×Flag-C-MAP2K1/MAP2K1 (K97A, M146A), MAP2K2/MAP2K1 (K101A, M150A), or CRAF/CRAF (K375A). […]
(§4) Cell lysate (500 μg) or recombinant proteins (200 ng) were incubated with erianin-CNBr activated sepharose 4B overnight at 4 °C, and the protein-beads complex was washed four times by the use of rotational incubator to remove non-specific binding. Western blotting was developed to check the pull-down bands.

MEK1/2 = assay: as above; format: binding, human; details: in vitro and ex vivo (A375 cell lysate)
Procedure: as §3, §4

[1] = tested on: normal human dermal fibroblasts (NHDF); assay: Cytotoxicity MTT assay; format: cell-based; details: 0, 12.5, 25, 50 nM
Procedure: as §1, §2

[2] = tested on: normal human epidermal melanocytes (NHEM); assay: Cytotoxicity MTT assay; format: cell-based; details: 0, 12.5, 25, 50 nM
Procedure: as §1, §2

[3] = tested on: SK-MEL-2, A375, SK-MEL-28, and HCT 116 cells; assay: Anchorage-independent cell growth assay; format: cell-based, human; details: both BRAF and RAS mutant cell lines
Procedure: as §1

HCT116 (KRAS mut) CDX = assay: Cell-derived xenograft (CDX); format: in vivo, NOD-SCID mice; details: 50 mg/kg, oral gavage
Procedure: (§5) Tumor volume (mm^3) = (length × width × height) × 0.52. SK-MEL-2: n = 10; A375 and SK-MEL-28: n = 8; HCT116: n = 9. b The photographs show tumors from CDX mice treated with vehicle, erianin, vemurafenib, or the combination. c The weight of the tumors was quantified and expressed as the treatment groups compared with the vehicle-treated group. […] The tissue lysates were prepared from CDX tumor tissues in each treatment group. […] Each point represents the IOD values of four quantified data from one mouse. Scale bars: 50 μm.
(§6) The animal experiments were performed according to the guidelines approved by the Zhengzhou University Institutional Animal Care and Use Committee. A375 cell line (1 × 10^7 cell/mouse), SK-MEL-28 cell line (5 × 10^6 cell/mouse), SK-MEL-2 cell (5 × 10^6 cell/mouse), and HCT116 cell line (1 × 10^7 cell/mouse) were injected subcutaneously into the NOD-SCID mice (Vital River Labs, Beijing, China). For the melanoma PDX mice model, the tumor was taken after surgical operation and implanted into the NPG (Vital River Labs, Beijing, China) mice under a sterile environment. For the colorectal cancer PDX mice model, NOD-SCID mice were selected as carriers for tumor growth. The measurement of tumor size was performed twice a week using vernier caliper and the calculation of tumor volume was done according to tumor volume (mm^3) = length × width × height × 0.52.

SK-MEL-2 (NRAS mut) CDX = assay: Cell-derived xenograft (CDX); format: in vivo, NOD-SCID mice; details: 50 mg/kg, oral gavage
Procedure: as §5, §6

melanoma PDX = assay: Patient-derived xenograft (PDX); format: in vivo
Procedure: Fig. 7 Erianin exerts antitumor efficacy in melanoma and colorectal cancer in vivo. a Tumor pharmacodynamic assay was performed in tumor-bearing NPG mice (tumor has been passaged from melanoma patient to mice for three generations). The photographs show tumors from melanoma PDX mice treated with vehicle or drugs. b The effect of erianin on the volume of PDX tumors over time (within 78 days) was plotted. Vehicle, erianin (50 mg/kg, once a day), vemurafenib (50 mg/kg, once a day), erianin and vemurafenib combination therapy, cobimetinib (5 mg/kg, twice a week) or vemurafenib and cobimetinib combination therapy (once a day and twice a week, respectively) were administered by oral gavage, n = 8 in each group. Tumor volume was measured once a week. […] Scale bars: 20 μm. One-way ANOVA test. ***p < 0.001. e Antitumor efficacy of erianin with or without immunity using B16F10 cell xenograft in C57BL-6J mouse. f, g Trend of tumor volume over time and tumor weight was measured after treatment on the last day of the study.

T1 sequence (P04049 whole entry): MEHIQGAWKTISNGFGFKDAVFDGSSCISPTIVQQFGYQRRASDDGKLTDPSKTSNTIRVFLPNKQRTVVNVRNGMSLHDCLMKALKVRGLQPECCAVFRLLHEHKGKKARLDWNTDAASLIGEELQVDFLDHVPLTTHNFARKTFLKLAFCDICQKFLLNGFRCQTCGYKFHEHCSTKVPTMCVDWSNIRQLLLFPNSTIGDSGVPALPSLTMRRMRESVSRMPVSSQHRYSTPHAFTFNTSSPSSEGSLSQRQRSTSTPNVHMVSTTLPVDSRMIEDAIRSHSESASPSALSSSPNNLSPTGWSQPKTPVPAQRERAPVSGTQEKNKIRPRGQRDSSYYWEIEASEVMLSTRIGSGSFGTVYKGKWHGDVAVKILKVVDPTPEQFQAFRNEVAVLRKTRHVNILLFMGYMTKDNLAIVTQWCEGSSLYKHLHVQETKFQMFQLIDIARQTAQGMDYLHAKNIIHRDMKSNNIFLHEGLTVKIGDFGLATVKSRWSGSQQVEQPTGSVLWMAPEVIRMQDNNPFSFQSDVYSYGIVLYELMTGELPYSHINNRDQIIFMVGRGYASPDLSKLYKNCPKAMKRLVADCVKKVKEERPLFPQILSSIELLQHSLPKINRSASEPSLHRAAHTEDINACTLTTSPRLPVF

Structure (SMILES): COc1ccc(CCc2cc(OC)c(OC)c(OC)c2)cc1O [Erianin]
- IC50 (A375 (BRAF V600E)): 12 ± 0.9 nM
- IC50 (HCT116 (KRAS mut)): 20.6 ± 2.2 nM
- bioavailability (Pharmacokinetic assay): 8 ± 1.1%
- binding in pull-down (CRAF): directly bound
- binding in pull-down (MEK1/2): directly bound
- cytotoxicity [1]: no toxicity
- cytotoxicity [2]: no toxicity
- colonies formation [3]: markedly suppress
- tumor volume and tumor weight (HCT116 (KRAS mut) CDX): inhibited tumor volume and tumor weight significantly
- tumor volume and tumor weight (SK-MEL-2 (NRAS mut) CDX): inhibited tumor volume and tumor weight significantly
- body weight (melanoma PDX; 50 mg/kg once a day, oral gavage): without significant changes
- toxicity sign (HE staining) (melanoma PDX; HE staining of liver and spleen): neither erianin group nor erianin-vemurafenib combination therapy showed toxicity sign
- tumor volume (melanoma PDX; oral gavage, erianin, vemurafenib 50 mg/kg once a day, cobimetinib 5 mg/kg twice a week, within 78 days): significant decrease

Reference: paper PMC9986241 (Signal Transduction and Targeted Therapy, 2023)
